{"source": "paper PMC3764026", "about": "“Adaptive Evolution of Escherichia coli to an α-Peptide/β-Peptoid Peptidomimetic Induces Stable Resistance” (PLoS ONE, 2013)", "key": {"[1]": {"test_system": "Escherichia coli ATCC 25922", "assay_type": "cell-based", "conditions": "wild-type E. coli ATCC 25922; MHB pH 7.4, 5×10^5 CFU/mL, 37°C, 18–20 h", "description": "All experiments were performed with Escherichia coli ATCC 25922. Stock cultures of the wild-type strain and lineage isolates were stored at –80°C in 4% (w/v) glycerol, 0.5% (w/v) glucose, 2% (w/v) skimmed milk powder and 3% (w/v) tryptone soy powder. Lineage populations were frozen at –80°C in 50% (w/v) glycerol. All experiments were performed at 37°C. Experiments were carried out in cation-adjusted Mueller Hinton II broth (MHB) (Becton Dickinson 212322) adjusted to pH 7.4 or in 1% (w/v) peptone (Becton Dickinson 211677) for MIC determination of natural AMPs. Brain Heart Infusion (BHI) (CM1135) with agar (VWR 20768.292) 1.5% as gelling agent was used throughout for colony plating.\nMIC was determined by using the micro-dilution method according to guidelines of the Clinical and Laboratory Standards Institute. Peptidomimetic 1 and erythromycin 1∶2 serial dilutions were prepared from 1024 µg/mL stock solutions to give a final range of 512-0.5 µg/mL in the wells. Ampicillin 1∶2 serial dilutions were prepared from a 256 µg/mL stock solution to give a final range of 128-0.13 µg/mL in the wells. Polymyxin B and gentamicin 1∶2 serial dilutions were prepared from a 64 µg/mL stock solution to give a final range of 32-0.03 µg/mL in the wells. Also, 1∶2 serial dilutions of the AMPs KR-12, IsCTp, melittin and PEP-1-K were prepared from 64 µg/mL stock solutions to give a final range of 32-0.03 µg/mL in the wells; however this was performed in 1% peptone instead of in MHB since activity was drastically diminished in the latter (not shown).\nThe population lineages were tested for their susceptibility towards peptidomimetic 1, polymyxin B, gentamicin and ampicillin. Single-culture isolates selected from these populations were additionally tested against peptidomimetic 1, polymyxin B, erythromycin and the five reference AMPs. To estimate the level of cross-resistance to closely related peptidomimetics, MIC determinations were performed for peptidomimetics 2 and 3 (Figure 1) towards selected isolates. […]"}, "E. coli ATCC 25922": {"test_system": "E. coli ATCC 25922", "conditions": "wild-type E. coli ATCC 25922", "description": "MIC was determined by using the micro-dilution method according to guidelines of the Clinical and Laboratory Standards Institute. Peptidomimetic 1 and erythromycin 1∶2 serial dilutions were prepared from 1024 µg/mL stock solutions to give a final range of 512-0.5 µg/mL in the wells. Ampicillin 1∶2 serial dilutions were prepared from a 256 µg/mL stock solution to give a final range of 128-0.13 µg/mL in the wells. Polymyxin B and gentamicin 1∶2 serial dilutions were prepared from a 64 µg/mL stock solution to give a final range of 32-0.03 µg/mL in the wells.\nThe population lineages were tested for their susceptibility towards peptidomimetic 1, polymyxin B, gentamicin and ampicillin. Single-culture isolates selected from these populations were additionally tested against peptidomimetic 1, polymyxin B, erythromycin and the five reference AMPs. To estimate the level of cross-resistance to closely related peptidomimetics, MIC determinations were performed for peptidomimetics 2 and 3 (Figure 1) towards selected isolates. The bacterial suspensions were grown overnight in MHB at 37°C for determination of the population MIC, or individual isolates were grown overnight on non-selective BHI agar at 37°C. […] In all experiments, bacterial cells were suspended in 0.9% saline to give a turbidity of 0.13 at OD546 (approximately 1×10^8 CFU/mL) and diluted in MHB pH 7.4 to a final concentration of 5×10^5 CFU/mL in each well. Polypropylene plates (Nunc 442587) were used to minimize peptide binding, and the incubation time was 18–20 hours at 37°C. […] MIC was found in a minimum of two technical (population MIC) or biological (isolate MIC) replicates as the lowest concentration of the AMP or antibiotic where no visible growth was observed.\nFour isolates, i.e. 2-7, 4-4, 5-6 and 7-3, a representative isolate from four different lineages, were revived from freeze storage. The four isolates were grown in 25–50% blood plasma and in 25–50% heat-inactivated plasma as previously described. Blood plasma was obtained from two different blood donors using sodium citrate as anticoagulant and experiments were performed on at least two independent days. Both donors were fully informed about the study and purpose and a written consent has been received. […] For this the 1∶2 serial dilutions were made in MHB with 50% blood plasma added to give a final concentration of 25% plasma in the wells."}}, "data": [{"smiles": "CC(=O)N[C@@H](CCCCNC(=N)N)C(=O)N(CCC(=O)N[C@@H](CCCCNC(=N)N)C(=O)N(CCC(=O)N[C@@H](CCCCNC(=N)N)C(=O)N(CCC(=O)N[C@@H](CCCCNC(=N)N)C(=O)N(CCC(=O)N[C@@H](CCCCNC(=N)N)C(=O)N(CCC(=O)N[C@@H](CCCCNC(=N)N)C(=O)N(CCC(N)=O)[C@@H](C)c1ccccc1)[C@@H](C)c1ccccc1)[C@@H](C)c1ccccc1)[C@@H](C)c1ccccc1)[C@@H](C)c1ccccc1)[C@@H](C)c1ccccc1", "note": "[peptidomimetic 1]", "values": [{"measurement": "wt MIC", "setting": "[1]", "result": 8, "unit": "µg/mL"}, {"measurement": "Potentiation (ability of plasma to interact synergistically with peptidomimetic 1)", "setting": "E. coli ATCC 25922; MHB vs MHB +25% plasma", "result": "Weak"}, {"measurement": "MIC in MHB +25% plasma", "setting": "E. coli ATCC 25922; MHB with 25% human blood plasma (sodium citrate)", "result": 2, "unit": "µg/mL"}]}]}
